Data reported in PubChem BioAssay AID1259407 (Chemical Carcinogenesis Research Information System (CCRIS), 2018).
Active and inactive are the calls of the source. How the calls were made is not given here.

Tested on: CCRIS mutagenicity, Ames/micronucleus/aberration tests
Experiment: CCRIS mutagenicity studies

Compound	mutagenic call (End Point: IN VITRO CHROMOSOMAL ABERRATIONS, Test System: CHINESE HAMSTER OVARY CELLS, Metabolic Activation: NONE)	mutagenic call (End Point: IN VITRO CHROMOSOMAL ABERRATIONS, Test System: CHINESE HAMSTER OVARY CELLS, Metabolic Activation: RAT, LIVER, S-9, AROCLOR 1254)	mutagenic call (End Point: IN VITRO CHROMOSOMAL ABERRATIONS, Test System: CHO CELLS, Metabolic Activation: NONE)	mutagenic call (End Point: IN VITRO CHROMOSOMAL ABERRATIONS, Test System: CHO CELLS, Metabolic Activation: RAT, LIVER, S-9, AROCLOR 1254)	mutagenic call (Test System: AMES SALMONELLA TYPHIMURIUM, Strain/Indicator: TA98, Metabolic Activation: HAMSTER, LIVER, S-9, AROCLOR 1254, Method: PREINCUBATION)	mutagenic call (Test System: AMES SALMONELLA TYPHIMURIUM, Strain/Indicator: TA98, Metabolic Activation: RAT, LIVER, S-9, AROCLOR 1254, Method: PREINCUBATION)	mutagenic call (Test System: AMES SALMONELLA TYPHIMURIUM, Strain/Indicator: TA100, Metabolic Activation: HAMSTER, LIVER, S-9, AROCLOR 1254, Method: PREINCUBATION)	mutagenic call (Test System: AMES SALMONELLA TYPHIMURIUM, Strain/Indicator: TA100, Metabolic Activation: NONE, Method: PREINCUBATION)	mutagenic call (Test System: AMES SALMONELLA TYPHIMURIUM, Strain/Indicator: TA100, Metabolic Activation: RAT, LIVER, S-9, AROCLOR 1254, Method: PREINCUBATION)	mutagenic call (Test System: AMES SALMONELLA TYPHIMURIUM, Strain/Indicator: TA1535, Metabolic Activation: HAMSTER, LIVER, S-9, AROCLOR 1254, Method: PREINCUBATION)	mutagenic call (Test System: AMES SALMONELLA TYPHIMURIUM, Strain/Indicator: TA1535, Metabolic Activation: NONE, Method: PREINCUBATION)	mutagenic call (Test System: AMES SALMONELLA TYPHIMURIUM, Strain/Indicator: TA1535, Metabolic Activation: RAT, LIVER, S-9, AROCLOR 1254, Method: PREINCUBATION)	mutagenic call (Test System: AMES SALMONELLA TYPHIMURIUM, Strain/Indicator: TA1537, Metabolic Activation: HAMSTER, LIVER, S-9, AROCLOR 1254, Method: PREINCUBATION)	mutagenic call (Test System: AMES SALMONELLA TYPHIMURIUM, Strain/Indicator: TA1537, Metabolic Activation: RAT, LIVER, S-9, AROCLOR 1254, Method: PREINCUBATION)	mutagenic call (Test System: MOUSE LYMPHOMA, Strain/Indicator: L5178Y (TK+/TK-), Metabolic Activation: NONE, Method: SUSPENSION/PLATE)	mutagenic call (Test System: AMES SALMONELLA TYPHIMURIUM, Strain/Indicator: TA100, Metabolic Activation: NONE, Method: STANDARD PLATE)	mutagenic call (Test System: AMES SALMONELLA TYPHIMURIUM, Strain/Indicator: TA100, Metabolic Activation: RAT, S-9, AROCLOR, Method: STANDARD PLATE)
NS(=O)(=O)c1cc2c(cc1Cl)NCNS2(=O)=O	inactive; negative	inactive; negative	inactive; negative	inactive; negative	inactive; negative	inactive; negative	inactive; negative	inactive; negative	inactive; negative	inactive; negative	inactive; negative	inactive; negative	inactive; negative	inactive; negative	active; positive		
O=Cc1ccc(C(=O)ON(OCc2ccccc2)C(=O)c2ccccc2)cc1																active; positive	active; positive
